The values below come from patent US9018206B2, “Carboxamide compounds and their use as calpain inhibitors” (AbbVie Deutschland GmbH & Co. KG, priority 2009, dated 2015).

Holding throughout (assay type): biochemical
Test [1] deals with T1, calpain-I isolated from human erythrocytes (Homo sapiens, UniProt P07384).
T1 construct: calpain-I—isolated from human erythrocytes; purchased Calbiochem 208713; host or cells: human erythrocytes (tissue-derived)
T1 sequence (P07384 1-714): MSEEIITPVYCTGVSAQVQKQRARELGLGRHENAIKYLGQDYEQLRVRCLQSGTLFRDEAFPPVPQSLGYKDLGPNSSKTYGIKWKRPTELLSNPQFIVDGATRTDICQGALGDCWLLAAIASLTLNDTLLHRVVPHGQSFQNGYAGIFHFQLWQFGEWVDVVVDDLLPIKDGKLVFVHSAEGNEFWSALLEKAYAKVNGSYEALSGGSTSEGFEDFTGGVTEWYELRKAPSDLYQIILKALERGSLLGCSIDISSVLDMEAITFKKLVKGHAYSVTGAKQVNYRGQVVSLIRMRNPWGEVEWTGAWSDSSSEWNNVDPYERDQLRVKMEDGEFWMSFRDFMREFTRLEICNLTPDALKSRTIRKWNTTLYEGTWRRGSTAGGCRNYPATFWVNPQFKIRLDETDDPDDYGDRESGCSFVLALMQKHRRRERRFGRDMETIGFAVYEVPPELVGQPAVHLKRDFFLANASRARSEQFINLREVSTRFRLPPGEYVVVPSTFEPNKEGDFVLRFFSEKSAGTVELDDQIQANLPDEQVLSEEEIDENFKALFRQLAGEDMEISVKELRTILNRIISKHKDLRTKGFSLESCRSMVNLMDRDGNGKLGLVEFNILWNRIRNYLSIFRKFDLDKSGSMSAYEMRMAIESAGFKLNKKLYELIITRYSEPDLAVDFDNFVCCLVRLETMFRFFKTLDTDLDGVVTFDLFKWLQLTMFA
T1 sequence (P04632 1-268 partner): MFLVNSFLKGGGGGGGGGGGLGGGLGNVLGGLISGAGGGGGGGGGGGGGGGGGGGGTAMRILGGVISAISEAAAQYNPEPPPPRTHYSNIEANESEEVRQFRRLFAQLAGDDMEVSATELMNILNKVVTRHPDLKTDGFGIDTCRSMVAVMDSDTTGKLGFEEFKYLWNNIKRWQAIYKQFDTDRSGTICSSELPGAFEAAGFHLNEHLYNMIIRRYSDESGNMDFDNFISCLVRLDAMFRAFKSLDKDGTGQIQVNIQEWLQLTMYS
Briefly: Calpain I enzyme inhibition in vitro (kinetic fluorescence assay). The following applies: apparent Ki from IC50 (Cheng-Prussoff); 20 nM calpain-I, 100 μM Suc-Leu-Tyr-AMC, pH 7.3, room temperature. Here is the method:
(§1) Testing for blockade of the corresponding enzymic activities was carried out by means of kinetic fluorescence assays (excitation 390 nm, emission 460 nm).
(§2) Apparent Ki values were calculated from the experimentally determined IC50 values by the Cheng-Prussoff relation assuming a reversible competitive enzyme inhibition. The Km values of the substrates used under the assay conditions indicated above were: 90 μM (Z-Phe-Arg-AMC, cathepsin B), 10 μM (Z-Gly-Pro-Arg-AMC, cathepsin K), 2 μM (Z-Phe-Arg-AMC, cathepsin L), and 30 μM (Z-Val-Val-Arg-AMC, cathepsin S).
(§3) The indicated Ki values are averages of the inhibition constants calculated on the basis of 2 to 4 independent dose-effect plots.
(§4) • 20 nM calpain-I—isolated from human erythrocytes (Calbiochem #208713), 100 μM Suc-Leu-Tyr-AMC (Bachem #I-1355) as substrate in buffer with 62 mM imidazole, 0.3 mM CaCl2, 0.10% CHAPS, 0.05% BSA, 1 mM DTT at pH 7.3 and room temperature. 1. Cathepsin B: • 0.25 nM cathepsin B—isolated from human liver (Calbiochem #219362), 100 μM Z-Phe-Arg-AMC (Bachem #I-1160) as substrate 50 mM MES, 2 mM EDTA, 0.05% Brij 35, 2.5 mM L-cysteine, pH 6.0, room temperature. 3. Cathepsin K: • 3 nM cathepsin K activated from recombinant human procathepsin K from E. coli (Calbiochem #342001), 10 μM Z-Gly-Pro-Arg-AMC (Biomol #P-142) as substrate in 50 mM MES, 2 mM EDTA, 0.05% Brij 35, 2.5 mM L-cysteine, pH 6.0, room temperature. 4. Cathepsin L: • 1 nM cathepsin L—isolated from human liver (Calbiochem #219402), 2 μM Z-Phe-Arg-AMC (Bachem #I-1160) as substrate in 50 mM MES, 2 mM EDTA, 0.05% Brij 35, 2.5 mM L-cysteine, pH 6.0, room temperature. 5. Cathepsin S: • 0.5 nM recombinant human cathepsin S from E. coli (Calbiochem #219343), 20 μM Z-Val-Val-Arg-AMC (Bachem #I-1540) as substrate in 50 mM MES, 2 mM EDTA, 0.05% Brij 35, 2.5 mM L-cysteine, pH 6.0, room temperature.

Test [2] addresses T2, recombinant human cathepsin S (Homo sapiens, UniProt P25774).
T2 construct: purchased Calbiochem 219343; host or cells: E. coli
The test is described as follows: Cathepsin S enzyme inhibition in vitro (kinetic fluorescence assay). The following applies: Ki(cathepsin S)/Ki(calpain) ratio. Here is the method:
as §1, §2, §3, §4

In test [3] the target is T3, cathepsin K activated from recombinant human procathepsin K (Homo sapiens, UniProt P43235).
T3 construct: purchased Calbiochem 342001; host or cells: E. coli
T3 sequence (P43235 115-329): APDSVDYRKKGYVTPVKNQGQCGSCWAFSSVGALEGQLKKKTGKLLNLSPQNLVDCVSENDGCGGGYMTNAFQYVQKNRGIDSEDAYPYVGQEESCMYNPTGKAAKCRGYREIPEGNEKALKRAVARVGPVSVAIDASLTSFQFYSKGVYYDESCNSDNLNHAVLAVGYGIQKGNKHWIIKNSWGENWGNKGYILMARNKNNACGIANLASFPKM
The test is described as follows: Cathepsin K enzyme inhibition in vitro (kinetic fluorescence assay). The following applies: Ki(cathepsin K)/Ki(calpain) ratio. Here is the method:
as §1, §2, §3, §4

Test [4] concerns the target T4, cathepsin B isolated from human liver (Homo sapiens, UniProt P07858).
T4 construct: cathepsin B—isolated from human liver; purchased Calbiochem 219362; host or cells: human liver (tissue-derived)
The test is described as follows: Cathepsin B enzyme inhibition in vitro (kinetic fluorescence assay). The following applies: Ki(cathepsin B)/Ki(calpain) ratio. On the procedure:
as §1, §2, §3, §4

What is called pKi is the Ki on a negative log10 scale, so that one unit is a factor of ten.

Molecules are shown by their SMILES. pKi: −log10 of the molar value.

T2 sequence (P25774 115-331): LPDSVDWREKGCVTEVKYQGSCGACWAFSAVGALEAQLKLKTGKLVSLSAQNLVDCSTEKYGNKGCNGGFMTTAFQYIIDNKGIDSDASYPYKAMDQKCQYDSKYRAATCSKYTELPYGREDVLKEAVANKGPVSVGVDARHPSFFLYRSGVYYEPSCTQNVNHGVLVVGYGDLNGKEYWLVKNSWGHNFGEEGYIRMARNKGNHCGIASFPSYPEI

For `O=C(NCCc1ccccn1)C(=O)C(Cc1ccccc1)NC(=O)[C@H]1CCC(=O)N1Cc1ccccc1` (mixture of isomers) [Example 31, (2R)-1-Benzyl-N-(3,4-dioxo-1-phenyl-4-(2-(pyridin-2-yl)-ethylamino)butan-2-yl)-5-oxopyrrolidine-2-carboxamide], in test [1], the pKi is 6.22 to 7.00. The “Sel cat. S” value in test [2] is listed as “++ (30<Ki(cathepsin B)/Ki(calpain)≦100)”. The “Sel cat. K” value in test [3] is recorded as “++ (10<Ki(cathepsin B)/Ki(calpain)≦30)”.
With `O=C(NCCCc1ccccn1)C(=O)C(Cc1ccccc1)NC(=O)[C@H]1CCC(=O)N1Cc1ccccc1` (mixture of isomers) [Example 32, (2R)-1-Benzyl-N-(3,4-dioxo-1-phenyl-4-(3-(pyridin-2-yl)propylamino)butan-2-yl)-5-oxopyrrolidine-2-carboxamide], the “Sel cat. B” value in test [4] is recorded as “++ (10<Ki(cathepsin B)/Ki(calpain)≦30)”. Further, the pKi in test [1] is 7.00 to 7.30. In addition, in test [2], the “Sel cat. S” value was “++ (30<Ki(cathepsin B)/Ki(calpain)≦100)”. The “Sel cat. K” value in test [3] is “+ (5<Ki(cathepsin K)/Ki(calpain)≦10)”.
Taken in the same sequence, the figures for `O=C(NCCCc1ccccc1)C(=O)C(Cc1ccccc1)NC(=O)[C@H]1CCC(=O)N1Cc1ccccc1` (mixture of isomers) [Example 33, (2R)-1-Benzyl-N-(3,4-dioxo-1-phenyl-4-(3-phenylpropylamino)butan-2-yl)-5-oxopyrrolidine-2-carboxamide] were “++ (10<Ki(cathepsin B)/Ki(calpain)≦30)”, 7.00 to 7.30, “++ (30<Ki(cathepsin B)/Ki(calpain)≦100)” and “++ (10<Ki(cathepsin B)/Ki(calpain)≦30)”.
Consider `O=C(NCc1cncs1)C(=O)C(Cc1ccccc1)NC(=O)[C@H]1CCC(=O)N1Cc1ccccc1` (mixture of isomers) [Example 52, (2R)-1-Benzyl-N-(3,4-dioxo-1-phenyl-4-(thiazol-5-ylmethylamino)butan-2-yl)-5-oxopyrrolidine-2-carboxamide], for which the negative logarithm of the Ki (pKi) in test [1] was 6.22 to 7.00.
Still for that read-out and setting: for `O=C(C(=O)N1CCOCC1)C(Cc1ccccc1)NC(=O)[C@H]1CCC(=O)N1Cc1ccccc1` (mixture of isomers) [Example 54, (2R)-1-Benzyl-N-(4-morpholino-3,4-dioxo-1-phenylbutan-2-yl)-5-oxopyrrolidine-2-carboxamide] the value was 6.22 to 7.00; for `CCNC(=O)C(=O)C(Cc1ccccc1)NC(=O)[C@H]1CCC(=O)N1Cc1ccc(C(F)(F)F)cc1` (mixture of isomers) [Example 55, (2R)—N-(4-(ethylamino)-3,4-dioxo-1-phenylbutan-2-yl)-5-oxo-1-(4-(trifluoromethyl)benzyl)pyrrolidine-2-carboxamide], 6.22 to 7.00; for `O=C(NC[C@H]1CCCO1)C(=O)C(Cc1ccccc1)NC(=O)[C@H]1CCC(=O)N1Cc1ccccc1` (mixture of isomers) [Example 69, (2R)-1-Benzyl-N-(3,4-dioxo-1-phenyl-4-(((R)-tetrahydrofuran-2-yl)methylamino)-butan-2-yl)-5-oxopyrrolidine-2-carboxamide], 6.22 to 7.00.
Same read-out and setting: in the case of `O=C(NCc1ccco1)C(=O)C(Cc1ccccc1)NC(=O)[C@H]1CCC(=O)N1Cc1ccccc1` (mixture of isomers) [Example 72, (2R)-1-Benzyl-N-(4-(furan-2-ylmethylamino)-3,4-dioxo-1-phenylbutan-2-yl)-5-oxopyrrolidine-2-carboxamide] it was 7.00 to 7.30; in that of `COc1cccc(C(F)(F)F)c1CN1C(=O)CC[C@@H]1C(=O)NC(Cc1ccccc1)C(=O)C(=O)NC1CC1` (mixture of isomers) [Example 74, (2R)—N-(4-(Cyclopropylamino)-3,4-dioxo-1-phenylbutan-2-yl)-1-(2-methoxy-6-(trifluoromethyl)benzyl)-5-oxopyrrolidine-2-carboxamide], 6.22 to 7.00.
The same measure, in the same setting: in the case of `O=C(NCCc1ccsc1)C(=O)C(Cc1ccccc1)NC(=O)[C@H]1CCC(=O)N1Cc1ccccc1` (single isomer, unassigned) [Example 71] it was greater than 7.30.
In the case of `NC(=O)C(=O)C(Cc1ccccc1)NC(=O)c1cccc(=O)n1Cc1ccccc1` (stereo not shown) [Example 4, N-(4-Amino-3,4-dioxo-1-phenylbutan-2-yl)-1-benzyl-6-oxo-1,6-dihydropyridine-2-carboxamide], in test [4], the “Sel cat. B” value is “++ (10<Ki(cathepsin B)/Ki(calpain)≦30)”. The pKi in test [1] was 7.00 to 7.30. In test [2], the “Sel cat. S” value is “+ (10<Ki(cathepsin S)/Ki(calpain)≦30)”.
For the molecule `NC(=O)C(=O)C(Cc1ccccc1)NC(=O)[C@H]1CCC(=O)N1Cc1ccc2ccccc2c1` (stereo partly drawn) [Example 12, (2R)—N-(4-Amino-3,4-dioxo-1-phenylbutan-2-yl)-1-(naphthalen-2-ylmethyl)-5-oxopyrrolidine-2-carboxamide], the pKi in test [1] is greater than 7.30. Also, the “Sel cat. S” value in test [2] is reported as “+ (10<Ki(cathepsin S)/Ki(calpain)≦30)”. The “Sel cat. K” value in test [3] is given as “+ (5<Ki(cathepsin K)/Ki(calpain)≦10)”.
On to `CN1C[C@H](C(=O)NC(Cc2ccccc2)C(=O)C(N)=O)N(Cc2ccccc2)C1=O` (stereo partly drawn) [Example 18, (4R)—N-(4-Amino-3,4-dioxo-1-phenylbutan-2-yl)-3-benzyl-1-methyl-2-oxoimidazolidine-4-carboxamide], for which, in test [4], the “Sel cat. B” value is “+++ (Ki(cathepsin B)/Ki(calpain) ratio of >30)”. Further, the negative logarithm of the Ki (pKi) in test [1] is 6.22 to 7.00.
In the case of `O=C(NCc1nc2ccccc2s1)C(=O)C(Cc1ccccc1)NC(=O)[C@H]1CCC(=O)N1Cc1ccccc1` (stereo partly drawn) [Example 53, (2R)—N-(4-(Benzo[d]thiazol-2-ylmethylamino)-3,4-dioxo-1-phenylbutan-2-yl)-1-benzyl-5-oxopyrrolidine-2-carboxamide], the negative-log Ki (pKi) in test [1] was 7.00 to 7.30.
Same read-out and setting: in the case of `O=C(NC[C@@H]1CCCO1)C(=O)C(Cc1ccccc1)NC(=O)[C@H]1CCC(=O)N1Cc1ccccc1` (stereo partly drawn) [Example 70, (2R)-1-Benzyl-N-(3,4-dioxo-1-phenyl-4-(((S)-tetrahydrofuran-2-yl)methylamino)-butan-2-yl)-5-oxopyrrolidine-2-carboxamide] it was 7.00 to 7.30.
